Like-named read-outs stand apart in the source and are kept apart here.
Columns and labels:
[1] = system: MCF-7 (human breast cancer cells); experiment: MTT cell growth inhibition, 72 h, MCF-7; type: cell-based; settings: MCF7, 72 h, read-out: MCF-7 (GI50)
Method: (§1) A549 (human lung cancer cells), MCF-7 (human breast cancer cells), MDA-MB-231 (human breast cancer cells) and MDA-MB-468 cells (human breast cancer cells) were maintained in Dulbecco's modified Eagle medium (DMEM, Invitrogen, Carlsbad, Calif.) supplemented with 10% (v/v) fetal calf serum (Sigma, St. Louis, Mo.), 10 μg/mL penicillin and 10 μg/mL streptomycin (Invitrogen, Carlsbad, Calif.) at 37° C. under 5% CO2. On the day of experiment, different concentrations of the drugs (final concentration 10^−8-10^−4 M) in duplicates were added to the cells and the cells were further incubated for 72 h. Then, the number of live cells was quantified by 3-(4,5-dimethyl-2-thiazolyl)-2,5-diphenyl-2H-tetrazolium bromide (MTT reagent, Sigma, St. Louis, Mo.).
(§2) The amount of reduced MTT formazan generated by live cells was determined by its absorbance at 570 nm after subtracting the background absorbance at 690 nm. The percent of cell growth was expressed as (A570(treated)−A570(initial))/(A570(vehicle treated)−A570(initial))*100, where A570(initial) represents initial cell population when drugs are added. The GI50 were derived from non-linear regression analysis of the dose-response curve using Prism 4.0 (GraphPad). […] Data were presented as mean±SD of at least two measurements in duplicates unless noted.

[2] = system: MDA-MB-231 (human breast cancer cells); experiment: MTT cell growth inhibition, 72 h, MDA-MB-231; type: cell-based; settings: MDA-MB-231, 72 h, read-out: MDA-MB-231 (GI50)
Method: as §1, §2

[3] = Pharmacokinetics of Compound 4 in mice (IV and PO); type: in vivo, BALB/c nude female mice
Method: The pharmacokinetics of Compound 4 was assessed in BALB/c nude female mice. Doses were 2 mg/kg administered intravenously (IV) and 20 mg/kg administered orally (PO). The intravenous formulation was administered in 1% N-Methyl-2-pyrrolidone (NMP) in water and was a clear solution. The per os solution was in 1.3% NMP+5% Tween-20® in a clear solution.

[4] = female, BALB/c nude, mouse, plasma, intravenous, 2 mg/kg, 2 mg/kg IV, G1, read-out: Plasma concentration G1
[5] = female, BALB/c nude, mouse, plasma, intravenous, 2 mg/kg, 2 mg/kg IV, G2, read-out: Plasma concentration G2
[6] = female, BALB/c nude, mouse, plasma, intravenous, 2 mg/kg, 2 mg/kg IV, G3, read-out: Plasma concentration G3
[7] = female, BALB/c nude, mouse, plasma, intravenous, 2 mg/kg, 2 mg/kg IV, mean, read-out: Plasma concentration Mean IV
[8] = female, BALB/c nude, mouse, plasma, oral, 20 mg/kg, 20 mg/kg PO, G4, read-out: Plasma concentration G4
[9] = female, BALB/c nude, mouse, plasma, oral, 20 mg/kg, 20 mg/kg PO, G5, read-out: Plasma concentration G5
[10] = female, BALB/c nude, mouse, plasma, oral, 20 mg/kg, 20 mg/kg PO, G6, read-out: Plasma concentration G6
[11] = female, BALB/c nude, mouse, plasma, oral, 20 mg/kg, 20 mg/kg PO, mean, read-out: Plasma concentration Mean PO
[12] = female, BALB/c nude, mouse, plasma, 2 mg/kg IV
[13] = female, BALB/c nude, mouse, plasma, 20 mg/kg PO

NCCCOc1cc2ccccc2cc1C(=O)NCCCOc1cc2ccccc2cc1C(=O)Nc1ccc(Cl)cc1O [Compound 4]
GI50 [1]: 140 ± 29 nM | GI50 [2]: 230 ± 6 nM | CI ([3]; 2 mg/kg IV): 12.7 mL/min/kg | concentration at 0.083 hr [3, 4]: 1610 ng/mL | concentration at 0.083 hr [3, 5]: 1980 ng/mL | concentration at 0.083 hr [3, 6]: 1540 ng/mL | concentration at 0.083 hr [3, 7]: 1710 ng/mL | concentration at 0.25 hr [3, 4]: 1140 ng/mL | concentration at 0.25 hr [3, 5]: 1900 ng/mL | concentration at 0.25 hr [3, 6]: 1610 ng/mL | concentration at 0.25 hr [3, 7]: 1550 ng/mL | concentration at 0.5 hr [3, 4]: 1130 ng/mL | concentration at 0.5 hr [3, 5]: 966 ng/mL | concentration at 0.5 hr [3, 6]: 1170 ng/mL | concentration at 0.5 hr [3, 7]: 1090 ng/mL | concentration at 1 hr [3, 4]: 528 ng/mL | concentration at 1 hr [3, 5]: 378 ng/mL | concentration at 1 hr [3, 6]: 419 ng/mL | concentration at 1 hr [3, 7]: 442 ng/mL | concentration at 2 hr [3, 4]: 275 ng/mL | concentration at 2 hr [3, 5]: 178 ng/mL | concentration at 2 hr [3, 6]: 105 ng/mL | concentration at 2 hr [3, 7]: 186 ng/mL | concentration at 4 hr [3, 4]: 59.9 ng/mL | concentration at 4 hr [3, 5]: 71 ng/mL | concentration at 4 hr [3, 6]: 58.1 ng/mL | concentration at 4 hr [3, 7]: 63 ng/mL | concentration at 8 hr [3, 4]: 30.2 ng/mL | concentration at 8 hr [3, 5]: 58.7 ng/mL | concentration at 8 hr [3, 6]: 56.6 ng/mL | concentration at 8 hr [3, 7]: 48.5 ng/mL | concentration at 24 hr [3, 4]: 15.3 ng/mL | concentration at 24 hr [3, 5]: 16.4 ng/mL | concentration at 24 hr [3, 6]: 13.3 ng/mL | concentration at 24 hr [3, 7]: 15 ng/mL | concentration at 0.25 hr [3, 8]: 75.5 ng/mL | concentration at 0.25 hr [3, 9]: 92.7 ng/mL | concentration at 0.25 hr [3, 10]: 101 ng/mL | concentration at 0.25 hr [3, 11]: 89.7 ng/mL | concentration at 0.5 hr [3, 8]: 92 ng/mL | concentration at 0.5 hr [3, 9]: 82.4 ng/mL | concentration at 0.5 hr [3, 10]: 166 ng/mL | concentration at 0.5 hr [3, 11]: 114 ng/mL | concentration at 1 hr [3, 8]: 402 ng/mL | concentration at 1 hr [3, 9]: 465 ng/mL | concentration at 1 hr [3, 10]: 139 ng/mL | concentration at 1 hr [3, 11]: 335 ng/mL | concentration at 2 hr [3, 8]: 353 ng/mL | concentration at 2 hr [3, 9]: 75 ng/mL | concentration at 2 hr [3, 10]: 269 ng/mL | concentration at 2 hr [3, 11]: 232 ng/mL | concentration at 4 hr [3, 8]: 128 ng/mL | concentration at 4 hr [3, 9]: 65.9 ng/mL | concentration at 4 hr [3, 10]: 118 ng/mL | concentration at 4 hr [3, 11]: 104 ng/mL | concentration at 8 hr [3, 8]: 45.8 ng/mL | concentration at 8 hr [3, 9]: 30.1 ng/mL | concentration at 8 hr [3, 10]: 41.7 ng/mL | concentration at 8 hr [3, 11]: 39.2 ng/mL | concentration at 12 hr [3, 8]: 46 ng/mL | concentration at 12 hr [3, 9]: 47.6 ng/mL | concentration at 12 hr [3, 10]: 48.2 ng/mL | concentration at 12 hr [3, 11]: 47.3 ng/mL | concentration at 24 hr [3, 8]: 7.2 ng/mL | concentration at 24 hr [3, 9]: 12.9 ng/mL | concentration at 24 hr [3, 10]: 34.1 ng/mL | concentration at 24 hr [3, 11]: 18.1 ng/mL | AUC(0-inf) [3, 12]: 2630 ng·h/mL | AUC(0-t) [3, 12]: 2420 ng·h/mL | half-life [3, 12]: 9.6 h | Vd ([3]; female, BALB/c nude, mouse, plasma, 2 mg/kg IV, read-out: Vss): 4.8 L/kg | AUC(0-inf) [3, 13]: 1860 ng·h/mL | AUC(0-t) [3, 13]: 1620 ng·h/mL | Cmax [3, 13]: 335 ng/mL | Tmax [3, 13]: 1 h | half-life [3, 13]: 9.1 h | bioavailability ([3]; female, BALB/c nude, mouse, plasma, 20 mg/kg PO vs 2 mg/kg IV): 7.1%
